Source: US10226501B2, “Method of orally administering a date fruit extract to treat breast cancer” (King Abdulaziz University, priority 2017, dated 2019)

Test system: female Wistar rats having DMBA-induced breast cancer
Assay: Serum antioxidant enzyme activities in rats with DMBA-induced breast cancer
Format: in vivo, rat
Details: oral, daily for three months, ADE 1 or 0.5 g/kg b.w., melatonin 2.5 mM
From the text: This is an in vivo experiment showing the improvement of Ajwa Date Extract (ADE) on the antioxidant system in rats having breast cancer induced by 7,12-Dimethylbenz[a]anthracene (DMBA).
The experiment of DMBA-induced breast cancer in female Wistar rats was comprised of six different treatment groups: the untreated controls (administered normal diet), DMBA-treated, DMBA-treated and orally administered 1 g/kg b.w. (body weight) of ADE, DMBA-treated and orally administered 0.5 g/kg b.w. of ADE, DMBA-treated and administered orally 2.5 mM melatonin, and DMBA-treated and administered 2.5 mM melatonin plus 1 g/kg b.w. of ADE. All six groups were treated daily for three months. On sacrification day, samples of blood were collected with the serum being separated and stored at −80° C.
The collected sera were analyzed for four mean activities namely, of superoxide dismutase (SOD) catalase, glutathione reductase (GR), and glutathione peroxidase (GPx). The means of the four activities in sera of the six treatment groups are illustrated in FIGS. 4-7. The mean serum SOD (FIG. 4), catalase (FIG. 5), GR (FIG. 6), and GPx (FIG. 7) in DMBA and ADE and/or melatonin administered rats was higher than that of the DMBA administered rats that were deprived of the ADE and/or melatonin.

COc1ccc2[nH]cc(CCNC(C)=O)c2c1 [melatonin]
higher: mean serum SOD activity (compared with DMBA-only rats (FIG. 4)) | mean serum catalase activity (compared with DMBA-only rats (FIG. 5)) | mean serum GR activity (compared with DMBA-only rats (FIG. 6)) | mean serum GPx activity (compared with DMBA-only rats (FIG. 7))
